Data published in paper PMC9739537, “Bioassay-Guided Fractionation with Antimalarial and Antimicrobial Activities of Paeonia officinalis” (Molecules, 2022).
Converted amounts (≈) assume the structure as drawn. Where two headings read alike, the source gives them in different places.

Columns and labels:
VERO = experiment: Cytotoxicity toward mammalian kidney fibroblasts (Vero); assay type: cell-based; conditions: Chlorocebus sabaeus, VERO cells
P. falciparum W2 = experiment: Antimalarial assay (plasmodial LDH activity), W2 strain; assay type: cell-based, Plasmodium falciparum; conditions: for IC50: Plasmodium falciparum, read-out: IC50 antiplasmodial activity, P. falciparum W2; for SI (Selectivity index), P. falciparum W2: VERO vs P. falciparum W2
Method: (§1) The assay is based on the measurement of plasmodial LDH activity. The test was conducted using a suspension of red blood cells infected with D6 or W2 strains of P. falciparum (200 µL, with 2% parasitemia, and 2% hematocrit in RPMI 1640 medium supplemented with 10% human serum and 60 µg/mL Amikacin) into the wells of a 96-well plate containing 10 µL of test samples diluted in medium at various concentrations. The plate was put in a modular incubation chamber (Billups-Rothenberg, San Diego, CA, USA); flushed with a gas mixture consisting of 90% N2, 5% O2, and 5% CO2; and incubated for 72 h at 37 °C. Parasitic LDH activity was measured by utilizing Malstat reagent (Flow Inc., Portland, OR, USA). Briefly, 20 µL of the incubation mixture was combined with 100 µL of the Malstat reagent and incubated at room temperature for 30 min. Then, twenty microliters of a 1:1 mixture of NBT/PES (Sigma, St. Louis, MO, USA) was added and the plate was further incubated in the dark for 1 h. The reaction was then stopped by the addition of 100 µL of a 5% acetic acid solution. The plate was read at 650 nm using the EL-340 Biokinetics Reader (Bio-Tek Instruments, Winooski, VT, USA). The dose–response curves were used to calculate IC50 values. […] Dimethyl sulfoxide (0.25%) was used as vehicle control.

P. falciparum D6 = experiment: Antimalarial assay (plasmodial LDH activity), D6 strain; assay type: cell-based, Plasmodium falciparum; conditions: for IC50: Plasmodium falciparum, read-out: IC50 antiplasmodial activity, P. falciparum D6; for SI (Selectivity index), P. falciparum D6: VERO vs P. falciparum D6
Method: as §1

C. neoformans = experiment: Antimicrobial susceptibility testing (modified CLSI), C. neoformans; assay type: cell-based, Cryptococcus neoformans
Description: (§2) The microorganism strains that were employed to test the antimicrobial activity were Candida albicans Pinh, C. neoformans Pinh, Aspergillus fumigatus Pinh, methicillin-resistant Staphylococcus aureus Pinh (MRS), E. coli Pinh, Pseudomonas aeruginosa Pinh, Klebsiella pneumoniae Pinh, and Vancomycin-resistant Enterococci (VRE) Pinh. The strains were bought from the American Type Culture Collection. A modified version of the CLSI methodology was used for the susceptibility testing. A final DMSO concentration of 1% was maintained in the assay by serially diluting all samples in 20% DMSO/saline and transferring them in duplicate to 384 well flat-bottom microplates. Following the McFarland standard, inocula were created by adjusting the OD630 of microbe suspensions in incubation broth. C. albicans was cultured in RPMI 1640 broth (2% dextrose, 0.03% glutamine, and MOPS at pH 6); C. neoformans in Sabouraud Dextrose; MRS, VRE, E. coli, K. pneumoniae, and P. aeruginosa in cation-adjusted Mueller–Hinton at pH 7.3, and A. fumigatus in RPMI 1640 broth (2% dextrose, 0.03% glutamine, buffered with 0.165 M MOPS at pH 7). Five percent Alamar Blue was added in A. fumigatus, VRE, and MRS. In every assay, there were drug controls for bacteria and fungi. […] A Bio-Tek plate reader was used to measure the optical density (530 nm) or fluorescence (544ex/590em) before and after incubation.

[1] = test system: methicillin-resistant Staphylococcus aureus (MRS); experiment: Antimicrobial susceptibility testing (modified CLSI), MRS; assay type: cell-based
Description: as §2

Klebsiella pneumoniae = experiment: Antimicrobial susceptibility testing (modified CLSI), K. pneumoniae; assay type: cell-based
Description: as §2

Pseudomonas aeruginosa = experiment: Antimicrobial susceptibility testing (modified CLSI), P. aeruginosa; assay type: cell-based
Description: as §2

[2] = test system: Candida albicans, C. neoformans, Aspergillus fumigatus, MRS, E. coli, Pseudomonas aeruginosa, Klebsiella pneumoniae, VRE; experiment: Antimicrobial panel (all assayed microorganisms); assay type: cell-based; conditions: at the tested concentration
Description: as §2

Row | IC50 (P. falciparum W2; W2 strain, 72 h) [µg/mL] | IC50 (P. falciparum D6; D6 strain, 72 h) [µg/mL] | SMILES | IC50 (VERO) [µg/mL] | SI (Selectivity index), P. falciparum W2 (P. falciparum W2) | antiplasmodial activity against P. falciparum W2 (in words) (P. falciparum W2; W2 strain) | antimicrobial activity (in words) [2] | antiplasmodial activity against P. falciparum D6 (in words) (P. falciparum D6; D6 strain) | SI (Selectivity index), P. falciparum D6 (P. falciparum D6) | further results
1 |  |  | CCN(CC)CCCC(C)Nc1ccnc2cc(Cl)ccc12 (stereo not shown) [Chloroquine, chloroquine, reference compound] | > 0.24 |  |  |  |  |  | IC50 (P. falciparum W2; W2, 72 h): 0.14 µg/mL (≈ 0.438 µM); IC50 (P. falciparum D6; D6, 72 h): 0.026 µg/mL (≈ 0.0813 µM)
2 |  |  | OC(Cn1cncn1)(Cn1cncn1)c1ccc(F)cc1F [Fluconazole, fluconazole] |  |  |  |  |  |  | IC50 antimicrobial activity, C. neoformans (C. neoformans): 4.684 µg/mL (≈ 15.3 µM); IC50 (C. neoformans; Cryptococcus neoformans): 4.68 µg/mL (≈ 15.3 µM)
3 |  |  | C[C@@H](O)[C@H]1C(=O)N2C(C(=O)O)=C(S[C@@H]3CN[C@H](C(=O)N(C)C)C3)[C@H](C)[C@H]12 [Meropenem, meropenem] |  |  |  |  |  |  | IC50 [1]: 46.9 µg/mL (≈ 122 µM); IC50 antimicrobial activity, K. pneumoniae (Klebsiella pneumoniae): 9.143 µg/mL (≈ 23.8 µM); IC50 antimicrobial activity, K. pneumoniae (Klebsiella pneumoniae; listed as meropenem): 43.94 µg/mL (≈ 115 µM); IC50 (Pseudomonas aeruginosa): 28.7 µg/mL (≈ 74.8 µM)
4 | 0.61 (≈ 3.31 µM) | 1.57 (≈ 8.53 µM) | COC(=O)c1cc(O)c(O)c(O)c1 [compound 3, methyl gallate] | > 4.76 | >7.8 | remarkable antiplasmodial activity | no exhibition of antimicrobial activity | remarkable antiplasmodial activity | >3 | 
5 | 2.91 (≈ 4.6 µM) | 4.72 (≈ 7.46 µM) | C[C@@]12C[C@@]3(O)O[C@@H](O1)[C@]1(COC(=O)c4ccccc4)[C@@H]3C[C@]12O[C@@H]1O[C@H](COC(=O)c2cc(O)c(O)c(O)c2)[C@@H](O)[C@H](O)[C@H]1O [compound 5, galloyl paeoniflorin] | > 4.76 | >1.6 | remarkable antiplasmodial activity | no exhibition of antimicrobial activity | remarkable antiplasmodial activity | >1 | 
